Results: patent US9526680B2, “Method for searching for malodor control agent, malodor control agent, and malodor control method” (Kao Corporation, priority 2010, dated 2016)

Key:
OR10A6 = target: T1, OR10A6 (Homo sapiens, UniProt Q8NH74); assay: Luciferase reporter gene assay, OR10A6 expressed in HEK293 cells; format: cell-based; conditions: response to hexanoic acid; test substance added together with hexanoic acid; HEK293
T1 construct: expressed in transfected cells; host or cells: HEK293
T1 sequence (Q8NH74 1-314): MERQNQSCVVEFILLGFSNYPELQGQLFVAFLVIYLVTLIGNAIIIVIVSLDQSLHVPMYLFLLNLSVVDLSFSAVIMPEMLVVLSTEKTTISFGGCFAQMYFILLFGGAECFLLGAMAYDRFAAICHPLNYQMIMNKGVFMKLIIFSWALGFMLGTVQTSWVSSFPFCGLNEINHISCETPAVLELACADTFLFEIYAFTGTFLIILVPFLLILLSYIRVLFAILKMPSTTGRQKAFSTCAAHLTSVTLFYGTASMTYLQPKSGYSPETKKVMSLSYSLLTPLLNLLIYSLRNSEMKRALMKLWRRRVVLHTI
Method: Cloning of human olfactory receptors was performed based on the sequence information registered in GenBank, through PCR with human genomic DNA female (G1521: Promega) as a template. Each of the genes amplified through PCR was inserted into a pENTR vector (Invitrogen) according to an instruction manual. Then, the gene-inserted vector was digested with NotI and AscI, and the obtained fragments were inserted into NotI and AscI sites located downstream of the Flag-Rho tag sequence in the pME18S vector.
Each of the 350 types of human olfactory receptors was expressed in HEK293 cells. A reaction solution having a composition shown in Table 2 was prepared on a clean bench, and left to stand for 15 minutes. The solution was dispensed to each well of a 96-well plate (BD). Subsequently, […] cells (100 μL, 3×10^5 cells/cm^2) were seeded in each well and cultured for 24 hours in an incubator at 37° C. and under 5% CO2 conditions.
The olfactory receptor expressed in HEK293 cell was conjugated with cell-intrinsic Gas to activate adenylate cyclase, and thereby the level of intracellular cAMP was increased. For the measurement of the response to odor in this study, the luciferase reporter gene assay was used, in which an increase in the amount of intracellular cAMP was monitored by using the emission value originating from firefly luciferase gene (fluc2P-CRE-hygro) as an indicator. Furthermore, a gene product obtained by fusing renilla luciferase gene in the downstream of CMV promoter (hRluc-CMV) was simultaneously introduced, and this was used as an internal standard for correcting an error in the transgenesis efficiency or the number of cells. The medium was removed from the culture prepared in the above-described section 3) by using a Pipetman, and 75 μl of a solution containing an odor substance (1 mM hexanoic acid or 300 μM nonanoic acid) prepared in CD293 medium (Invitrogen) was added thereto. The cells were cultured for 4 hours in a CO2 incubator, and the luciferase gene was sufficiently expressed in the cells. For the measurement of luciferase activity, the measurement was carried out by using a Dual-Glo™ luciferase assay system (Promega) according to the operation manual of the product. A value calculated by dividing the emission value, derived from a firefly luciferase induced by the stimulation with an odor substance, by the emission value in cells that were not-stimulated with an odor substance, was designated as a fold increase, and used as an index of response intensity.
OR2W1, OR10A6, OR51E1, OR51I2, and OR51L1 were respectively expressed in HEK293 cells by the same method as that used in Example 1, and a luciferase assay was carried out. In the luciferase assay, hexanoic acid was used as the odorous substance, and test substances were added together with hexanoic acid. The response of the olfactory receptors to hexanoic acid was measured, and a decrease in the receptor response to the addition of test substances was evaluated.
The inhibition ratios of the receptor response to test substances were calculated as follows. The emission value (Y) obtained from the cells in which the same receptors were introduced but no odor stimulation was conducted, was subtracted from the emission value derived from firefly luciferase (X) induced by odor stimulation with hexanoic acid alone. Similarly, the emission value (Y) obtained from the cells in which no odor stimulation was conducted, was subtracted from the emission value (Z) caused by stimulation with a mixture of hexanoic acid and a test substance. By the following calculation formula, the inhibitory activity of the test substance to receptor response was calculated based on the increment of the emission value (X−Y) caused by stimulation of hexanoic acid alone. Multiple independent experiments were performed in duplicate, and the average of each experiment was obtained. Inhibition ratio (%)={1−(Z−Y)/(X−Y)}×100

[1] = Sensory evaluation test of cresol odor inhibition (specificity); format: in vivo; conditions: cresol and test substance each diluted 100 times with propylene glycol (FIG. 8)
Method: Cotton balls were introduced into a glass bottle (Hakuyo Glass Co., Ltd. No. 11, capacity 110 ml), and hexanoic acid diluted 100 times with propylene glycol, nonanoic acid diluted 10 times with propylene glycol, or isovaleric acid diluted 1000 times with propylene glycol, as a malodor, and a test substance were added dropwise in an amount of […] to the cotton balls. The glass bottle was left to stand overnight at room temperature, and the odor molecules were sufficiently volatilized in the glass bottle. A sensory evaluation test was carried out by a panel of three panelists (5 panelists for isovaleric acid), and while the intensity of odor in the case of adding dropwise the malodor alone was rated as 5, the intensity of the malodor in the case of incorporating a test substance was evaluated on the basis of a system of 20 grades from 0 point to 10 points (0.5 points per grade).
In the experiment, cresol diluted 100 times with propylene glycol was used as the malodor, and florhydral diluted 100 times with propylene glycol was used as the test substance.

Row | Molecule | Inhibition ratio of OR10A6 response (OR10A6) | Inhibition of cresol odor (in words) [1]
1 | 2,4,6-trimethyl-3-cyclohexene-1-carboxyaldehyde, 3,5,6-trimethyl-3-cyclohexene-1-carboxyaldehyde [Isocyclocitral] | 1 (Inhibition ratio: 50% or higher) | 
2 | CC(C)c1cccc(C(C)CC=O)c1 (centres unmarked) [Florhydral, 3-(3-isopropylphenyl)-butyraldehyde] |  | not inhibited
